Results published in patent publication US12453782B2, “Antibody-oligonucleotide conjugate” (priority 2018, dated 2025).

Experiments:
[1] = newly diagnosed glioblastoma (ABT-414); platinum-resistant ovarian cancer (IMGN853); cited from earlier work
[2] = pH dependent hydrolysis of the hydrazone bond of SO1861-EMCH (MALDI-TOF-MS); assay type: physicochemical; settings: HCl solution at pH 3, two points in time
[3] = tested on: HER14 cells (fibroblasts stably transfected with the human epidermal growth factor receptor); experiment: Viability assay (MTT) with HER14 cells, dianthin-EGF, SA1641 and polymeric structure (Example 11); assay type: cell-based; settings: 72 h
Description: To test the efficacy of the invention, we conducted a viability assay with HER14 cells. These cells are fibroblasts stably transfected with the human epidermal growth factor receptor and therefore target cells for the targeted toxin dianthin-EGF. HER14 cells (2,000 cells/100 μL/well) were seeded into wells of 96-well-cell culture plates and incubated for 24 h in DMEM medium supplemented with 10% fetal calf serum and 1% penicillin/streptomycin at 37° C., 5% CO2 and 98% humidity. The different test substances (see results and FIG. 21) were then added in triplicates in a volume of 25 μL and supplemented with further 25 μL of medium. After an incubation of 72 h, 30 μL 3-(4,5-dimethylthiazol-2-yl)-2,5-diphenyltetrazolium bromide (0.5 mg/mL in water) was added per well and incubated for 2 h. Thereafter, the medium was carefully removed and replaced by an aqueous solution containing 10% (v/v) isopropanol, 5% (w/v) sodium dodecyl sulfate and 400 mM HCl, and incubated for 5 min. Solubilized formazan was photometrically quantitated at […] in a microplate reader (Spectra MAX 340 PC, Molecular Devices, Sunnyvale, CA, USA). Untreated cells were normalized to 1 and all samples referred to the untreated control. Significance was determined by unpaired two-sample t-tests.

[4] = tested on: SK-BR-3, JIMT-1, MDA-MB-468, A431, CaSki, HeLa, A2058; experiment: Control treatments, relative cell viability on various cancer cell lines (Example 4, FIG. 8); assay type: cell-based, human; settings: wide range of toxin concentrations, up to 100.000 pM
Description: After treatment the cells were incubated for 72 hr at 37° C. before the cell viability was determined by a MTS-assay, performed according to the manufacturer's instruction (CellTiter 96® AQueous One Solution Cell Proliferation Assay, Promega). Briefly, the MTS solution was diluted 20× in DMEM without phenol red (PAN-Biotech GmbH) supplemented with 10% FBS (PAN-Biotech GmbH). The cells were washed once with 200 μL PBS per well, after which 100 μL diluted MTS solution was added per well. The plate was incubated for approximately 20-30 minutes at 37° C. Subsequently, the optical density at 492 nm was measured on a Thermo Scientific Multiskan FC plate reader (Thermo Scientific). For quantification the background signal of ‘medium only’ wells was subtracted from all other wells, before the ratio of untreated/treated cells was calculated, by dividing the background corrected signal of untreated wells over the background corrected signal of the treated wells.

HeLa cells = experiment: Co-administration of PAMAM, dendron or chloroquine with dianthin-EGF and SO1861 on HeLa cells (inhibition of endosomal escape, cell viability); assay type: cell-based, human; settings: 500 nM PAMAM, PAMAM derivatives or chloroquine, 667 nM dendron, various SO1861 concentrations
Description: As control for the inhibition of endosomal acidification chloroquine was used.

mirvetuximab soravtansine: folate receptor alpha targeted ADC, ImmunoGen
survival benefit in phase 3 trials [1]: no survival benefit

depatuxizumab mafodotin: EGFR targeted ADC, AbbVie
survival benefit in phase 3 trials [1]: no survival benefit

CC(=O)OC1C(C)OC(OC2C(C)OC(OC(=O)[C@]34CCC(C)(C)CC3C3=CCC5[C@@]6(C)CC[C@H](OC7OC(C(=O)O)C(O)C(OC8OCC(O)C(O)C8O)C7OC7OC(CO)C(O)C(O)C7O)[C@@](C)(/C=N/NC(=O)CCCCCN7C(=O)C=CC7=O)C6CC[C@@]5(C)[C@]3(C)C[C@H]4O)C(OC3OC(C)C(OC4OCC(O)C(OC5OC(CO)C(O)C(O)C5O)C4O)C(O)C3O)C2O)C(O)C1OC1OCC(O)C(O)C1O (stereo partly drawn) [SO1861-EMCH]
hydrolysis of the hydrazone bond [2]: responsive towards hydrolysis and gets cleaved

C[C@@H]1O[C@@H](O[C@H]2[C@H](OC(=O)[C@]34CCC(C)(C)C[C@H]3C3=CC[C@@H]5[C@@]6(C)CC[C@H](O[C@H]7O[C@H](C(=O)O)[C@@H](O)[C@H](O[C@@H]8OC[C@@H](O)[C@H](O)[C@H]8O)[C@H]7O[C@@H]7O[C@H](CO)[C@H](O)[C@H](O)[C@H]7O)[C@@](C)(C=O)[C@@H]6CC[C@@]5(C)[C@]3(C)CC4)O[C@H](C)[C@H](O[C@@H]3O[C@H](C)[C@@H](O)[C@H](O)[C@H]3O)[C@@H]2O)[C@H](O)[C@H](O)[C@H]1O[C@@H]1OC[C@@H](O)[C@H](O[C@@H]2OC[C@@H](O)[C@H](O)[C@H]2O)[C@H]1O [SA1641]
effect on cells of 0.1 nM dianthin-EGF in the presence of SA1641 [3]: death of all cells

saporin
influence on cell viability [4]: do not or hardly have any influence on cell viability

CCN(CC)CCCC(C)Nc1ccnc2cc(Cl)ccc12 (stereo not drawn) [chloroquine]
effect on SO1861-mediated endosomal escape of the targeted toxin (dianthin-EGF) and cell killing (HeLa cells): inhibit the SO1861-mediated endosomal escape of the targeted toxin and subsequent cell killing
